# Results taken from US8378104B2 (OSI Pharmaceuticals, LLC, priority 2010, dated 2013).
# Where a name gives a salt, the structure may show the parent alone.
# Molecular target: T1, TAK1-TAB1 fusion protein (Homo sapiens, UniProt O43318)
# T1 construct: purchased Carna
# T1 sequence (O43318 with tags, fused parts or gaps limits assumed): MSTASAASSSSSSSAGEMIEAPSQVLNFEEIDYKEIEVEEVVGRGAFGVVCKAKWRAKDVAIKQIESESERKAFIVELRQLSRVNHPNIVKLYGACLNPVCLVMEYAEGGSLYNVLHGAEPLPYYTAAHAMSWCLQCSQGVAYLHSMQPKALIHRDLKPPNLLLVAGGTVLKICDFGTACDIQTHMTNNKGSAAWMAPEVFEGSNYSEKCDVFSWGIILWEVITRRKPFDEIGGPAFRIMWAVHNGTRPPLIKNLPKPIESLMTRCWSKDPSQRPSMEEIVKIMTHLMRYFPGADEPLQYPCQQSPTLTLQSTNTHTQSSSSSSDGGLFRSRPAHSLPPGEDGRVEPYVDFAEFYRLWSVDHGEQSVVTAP
# Assay: TAK1 biochemical assay (AlphaScreen, GST-MAP2K7 substrate)
# Conditions: not given
row,Compound,IC50 [µM]
1,"CC(=O)N1CCC(n2cc(-c3cnc(N)c4oc(C5=CCNCC5)cc34)cn2)CC1 [Example 95, 1-(4-{4-[7-amino-2-(1,2,3,6-tetrahydropyridin-4-yl)furo[2,3-c]pyridin-4-yl]-1H-pyrazol-1-yl}piperidin-1-yl)ethanone hydrochloride]",0.1 to 1

# Same assay, conditions: TAK1-TAB1 fusion protein, GST-MAP2K7 substrate; read-out: mean TAK1 IC50 (Col. A)
row,Compound,IC50 [µM]
1,"Nc1ncc(-c2cnn(C3CCNCC3)c2)c2cc(-c3ccn[nH]3)oc12 [Example 27, 4-[1-(piperidin-4-yl)-1H-pyrazol-4-yl]-2-(1H-pyrazol-5-yl)furo[2,3-c]pyridine-7-amine]",1 to 10
2,"Nc1ncc(-c2cnn(C3CCNCC3)c2)c2cc(-c3cccc4cn[nH]c34)oc12 [Example 45, 2-(1H-indazol-7-yl)-4-[1-(piperidin-4-yl)-1H-pyrazol-4-yl]furo[2,3-c]pyridin-7-amine]",0.1 to 1
3,"Cc1c(-c2ccc3[nH]ncc3c2)oc2c(N)ncc(-c3cnn(C4CCNCC4)c3)c12 [Example 11, 2-(1H-indazol-5-yl)-3-methyl-4-[1-(piperidin-4-yl)-1H-pyrazol-4-yl]furo[2,3-c]pyridin-7-amine hydrochloride]",1 to 10
4,"COC(=O)c1cc2cccc(-c3cc4c(-c5cnn(C6CCNCC6)c5)cnc(N)c4o3)c2s1 [Example 48, methyl 7-{7-amino-4-[1-(piperidin-4-yl)-1H-pyrazol-4-yl]furo[2,3-c]pyridine-2-yl}-1-benzothiophene-2-carboxylate]",0.1 to 1
5,"C[C@]1(O)CC[C@H](n2cc(-c3cnc(N)c4oc(-c5cccc6cnccc56)cc34)cn2)CC1 [Example 75, trans-4-{4-[7-amino-2-(isoquinolin-5-yl)furo[2,3-c]pyridin-4-yl]-1H-pyrazol-1-yl}-1-methylcyclohexanol]",0.1 to 1
6,"CC(=O)N1CCC(n2cc(-c3cnc(N)c4oc(-c5ccc(N)nc5)cc34)cn2)CC1 [Example 147, 1-(4-{4-[7-amino-2-(6-aminopyridin-3-yl)furo[2,3-c]pyridin-4-yl]-1H-pyrazol-1-yl}piperidin-1-yl)ethanone]",0.1 to 1
7,"COC(=O)c1cc2cc(-c3cc4c(-c5cnn(C6CCNCC6)c5)cnc(N)c4o3)ccc2s1 [Example 47, methyl 5-{7-amino-4-[1-(piperidin-4-yl)-1H-pyrazol-4-yl]furo[2,3-c]pyridine-2-yl}-1-benzothiophene-2-carboxylate]",1 to 10
8,"CC(=O)N1CCC(n2cc(-c3cnc(N)c4oc(-c5ccc6c(c5)NC(=O)C6)cc34)cn2)CC1 [Example 144, 6-{4-[1-(1-acetylpiperidin-4-yl)-1H-pyrazol-4-yl]-7-aminofuro[2,3-c]pyridin-2-yl}-1,3-dihydro-2H-indol-2-one]",1 to 10
9,"CC1(C)OCC(Cn2cc(-c3cnc(N)c4oc(-c5cccc6cnccc56)cc34)cn2)O1 (stereo not shown) [Example 61, 4-{1-[(2,2-dimethyl-1,3-dioxolan-4-yl)methyl]-1H-pyrazol-4-yl}-2-(isoquinolin-5-yl)furo[2,3-c]pyridin-7-amine]",1 to 10
10,"Nc1ncc(-c2cnn(C3CCNCC3)c2)c2cc(-c3ccsc3)oc12 [Example 28, 4-[1-(piperidin-4-yl)-1H-pyrazol-4-yl]-2-(thiophen-3-yl)furo[2,3-c]pyridine-7-amine]",1 to 10
11,"Nc1ncc(-c2cnn(CC(O)CO)c2)c2cc(-c3cccc4cnccc34)oc12 (stereo not shown) [Example 66, 3-{4-[7-amino-2-(isoquinolin-5-yl)furo[2,3-c]pyridin-4-yl]-1H-pyrazol-1-yl}propane-1,2-diol]",1 to 10
12,"CCn1cc(-c2cnc(N)c3oc(-c4cccc5cnccc45)cc23)cn1 [Example 71, 4-(1-ethyl-1H-pyrazol-4-yl)-2-(isoquinolin-5-yl)furo[2,3-c]pyridin-7-amine]",1 to 10
13,"Nc1cncc(-c2cc3c(-c4cnn(C5CCNCC5)c4)cnc(N)c3o2)c1 [Example 31, 2-(5-aminopyridin-3-yl)-4-[1-(piperidin-4-yl)-1H-pyrazol-4-yl]furo[2,3-c]pyridine-7-amine]",0.1 to 1
14,"CC(=O)N1CCC(n2cc(-c3cnc(N)c4oc(-c5cccc(OC(C)C)c5)cc34)cn2)CC1 [Example 165, 1-[4-(4-{7-amino-2-[3-(propan-2-yloxy)phenyl]furo[2,3-c}pyridin-4-yl}-1H-pyrazol-1-yl)piperidin-1-yl}ethanone]",1 to 10
15,"Nc1ncc(-c2cnn(C3CCNCC3)c2)c2c(Cl)c(-c3cccc4ccsc34)oc12 [Example 13, 2-(1-benzothiophen-7-yl)-3-chloro-4-[1-(piperidin-4-yl)-1H-pyrazol-4-yl]furo[2,3-c]pyridin-7-amine hydrochloride]",< 0.1
16,"Nc1ncc(-c2cnn(C3CCNCC3)c2)c2cc(-c3cccc4c3oc3ccccc34)oc12 [Example 36, 2-(dibenzo[b,d]furan-4-yl)-4-[1-(piperidin-4-yl)-1H-pyrazol-4-yl]furo[2,3-c]pyridine-7-amine]",0.1 to 1
17,"Nc1ncc(-c2cnn(C3CCNCC3)c2)c2cc(-c3cccc4c3Sc3ccccc3S4)oc12 [Example 35, 4-[1-(piperidin-4-yl)-1H-pyrazol-4-yl]-2-(thianthren-1-yl)furo[2,3-c]pyridine-7-amine]",1 to 10
18,"CC(=O)N1CCC(n2cc(-c3cnc(N)c4oc(-c5ccc6c(c5)C(=O)NC6=O)cc34)cn2)CC1 [Example 100, 5-{4-[1-(1-acetylpiperidin-4-yl)-1H-pyrazol-4-yl]-7-aminofuro[2,3-c]pyridin-2-yl}-1H-isoindole-1,3(2H)-dione]",1 to 10
19,"CC(=O)N1CCC(n2cc(-c3cnc(N)c4oc(-c5cnc6ccccc6c5)cc34)cn2)CC1 [Example 168, 1-(4-{4-[7-amino-2-(quinolin-3-yl)furo[2,3-c]pyridin-4-yl]-1H-pyrazol-1-yl}piperidin-1-yl)ethanone]",1 to 10

# Results, then the molecule that gave them:
row,IC50 [µM],Compound
1,> 10,"CC(=O)N1CCC(n2cc(-c3cnc(N)c4oc(-c5c[nH]c6ccccc56)cc34)cn2)CC1 [Example 188, 1-(4-{4-[7-amino-2-(1H-indol-3-yl)furo[2,3-c]pyridin-4-yl]-1H-pyrazol-1-yl}piperidin-1-yl)ethanone]"
2,1 to 10,"Cc1cc(-c2cnc(N)c3oc(-c4csc5cnccc45)cc23)cs1 [Example 393, 4-(5-methylthiophen-3-yl)-2-(thieno[2,3-c]pyridin-3-yl)furo[2,3-c]pyridin-7-amine trifluoroacetate]"
3,> 10,"CC(=O)N1CCC(n2cc(-c3cnc(N)c4oc(-c5cccc(OCc6cccc(Cl)c6)c5)cc34)cn2)CC1 [Example 201, 1-{4-[4-(7-amino-2-{3-[(3-chlorobenzyl)oxy]phenyl}furo[2,3-c]pyridin-4-yl)-1H-pyrazol-1-yl]piperidin-1-yl}ethanone]"
4,1 to 10,"Cc1nn(C[C@H](O)CO)cc1-c1cnc(N)c2oc(-c3csc4cnccc34)cc12 [Example 318, (S)-3-[4-(7-amino-2-thieno[2,3-d]pyridin-3-yl-furo[2,3-d]pyridin-4-yl)-3-methyl-pyrazol-1-yl]-propane-1,2-diol]"
5,1 to 10,"Nc1ncc(-c2cc(C(=O)O)cs2)c2cc(-c3csc4cnccc34)oc12 [Example 379, 5-(7-amino-2-thieno[2,3-c]pyridin-3-yl-furo[2,3-c]pyridin-4-yl)-thiophene-3-carboxylic acid]"
6,> 10,"CCOC(=O)COc1cccc(-c2cc3c(-c4cnn(C5CCN(C(C)=O)CC5)c4)cnc(N)c3o2)c1 [Example 211, ethyl (3-{4-[1-(1-acetylpiperidin-4-yl)-1H-pyrazol-4-yl]-7-aminofuro[2,3-c]pyridin-2-yl}phenoxy)acetate]"
7,1 to 10,"CC(=O)N1CCC(n2cc(-c3cnc(N)c4oc(-c5cccc(OCc6ccccn6)c5)cc34)cn2)CC1 [Example 199, 1-[4-(4-{7-amino-2-[3-(Pyridin-2-ylmethoxy)phenyl]furo[2,3-c]pyridin-4-yl}-1H-pyrazol-1-yl)piperidin-1-yl]ethanone]"
8,1 to 10,"CC(=O)N1CCC(n2cc(-c3cnc(N)c4oc(-c5ccc(C#N)cc5)cc34)cn2)CC1 [Example 170, 4-{4-[1-(1-acetylpiperidin-4-yl)-1H-pyrazol-4-yl]-7-aminofuro[2,3-c]pyridin-2-yl}benzonitrile]"
9,0.1 to 1,"CC(=O)N1CCC(n2cc(-c3cnc(N)c4oc(-c5ccnc6ccccc56)cc34)cn2)CC1 [Example 175, 1-(4-{4-[7-amino-2-(quinolin-4-yl)furo[2,3-c]pyridin-4-yl]-1H-pyrazol-1-yl}piperidin-1-yl)ethanone]"
10,0.1 to 1,"COc1ccccc1NCCC(=O)N1CCC(n2cc(-c3cnc(N)c4oc(-c5cccc6cnsc56)cc34)cn2)CC1 [Example 336, 1-{4-[4-(7-amino-2-benzo[d]iso-thiazol-7-yl-furo[2,3-c]pyridin-4-yl)-pyrazol-1-yl]-piperidin-1-yl}-3-(2-methoxy-phenyl-amino)-propan-1-one]"
11,1 to 10,"Cc1ccc(-c2cnc(N)c3oc(-c4csc5cnccc45)cc23)s1 [Example 386, 4-(5-methyl-thiophen-2-yl)-2-thieno[2,3-c]pyridin-3-yl-furo[2,3-c]pyridin-7-ylamine]"
12,1 to 10,"CC(=O)N1CCC(n2cc(-c3cnc(N)c4oc(-c5ccc(N)cc5)cc34)cn2)CC1 [Example 183, 1-(4-{4-[7-amino-2-(4-aminophenyl)furo[2,3-c]pyridin-4-yl]-1H-pyrazol-1-yl}piperidin-1-yl)ethanone]"
13,1 to 10,"Cn1ccc(-c2cnc(N)c3oc(-c4csc5cnccc45)cc23)c1 [Example 389, 4-(1-methyl-1H-pyrrol-3-yl)-2-(thieno[2,3-c]pyridin-3-yl)furo[2,3-c]pyridin-7-amine trifluoroacetate]"
14,> 10,"CC(=O)N1CCC(n2cc(-c3cnc(N)c4oc(-c5cccc6ccoc56)cc34)cn2)CC1 [Example 196, 1-(4-{4-[7-amino-2-(1-benzofuran-7-yl)furo[2,3-c]pyridin-4-yl]-1H-pyrazol-1-yl}piperidin-1-yl)ethanone]"
